Test results published in patent publication US11951185B2, “RNA constructs and uses thereof” (BioNTech SE, priority 2020, dated 2024).

Legend:
[1] = LNP formulation comparison: RNA encapsulation efficiency, apparent pKa, LNP size and polydispersity; format: physicochemical; conditions: LNP with surrogate RNA coding for luciferase; among the screened cationic lipids
Method: (§1) An exemplary LNP delivery system was developed to effectively and safely deliver therapeutic nucleic acids into the cytosol of various cell types after local administration in vivo. The early formulation work was performed with several promising LNP formulations and surrogate RNA coding for luciferase. The aim of the experiments was to correlate the effect of different ionizable cationic lipids on the efficacy of RNA delivery by LNPs in vivo. Formulations were compared in terms of RNA encapsulation efficiency, apparent pKa, LNP size and polydispersity.

luciferase (Luc) RNA = assay: In vivo screening of LNP pilot batches using luciferase (Luc) RNA, intravenous administration; conditions: on the basis of the in vivo screening studies
Method: as §1
Based on this the ALC-0315/DSPC/CHOL/ALC-0159 prototype was submitted for in vivo screening. The results presented in FIG. 16 summarize the in vivo testing of two independent pilot batches using luciferase (Luc) RNA.
The formulation screening procedure described above involves intravenous administration resulting in delivery primarily to the liver. The mechanism of LNP uptake into hepatocytes is driven by binding of endogenous apolipoproteins to the LNP followed by receptor-mediated endocytosis e.g. through low density lipoprotein receptors. […] Luc expression was monitored at 4, 24, 72 and 96 hours post administration (FIG. 17).

## CCCCCCCCC(CCCCCC)C(=O)OCCCCCCN(CCCCO)CCCCCCOC(=O)C(CCCCCC)CCCCCCCC (centres unmarked) [ALC-0315, ((4-hydroxybutyl)azanediyl)bis(hexane-6,1-diyl)bis(2-hexyldecanoate)]
[1]
  physical characteristics regarding particle size, homogeneity, and RNA encapsulation efficiency: suitable physical characteristics
Luciferase (Luc) RNA
  potency as cationic lipid: highly potent
